Assay results as given in patent US11084829B2, “Ubiquitin-specific-processing protease 7 (USP7) modulators and uses thereof” (RAPT THERAPEUTICS, INC., priority 2018, dated 2021).

Biological target: USP7 (Homo sapiens, UniProt Q93009)
Assay: USP7 inhibitory potency (IC50)
Assay type: biochemical
Description: Activity for compounds described herein is provided in Table 2, wherein potency levels are provided as follows: (Potency: USP7 IC50: A<0.01 μM; B=0.01-0.1 μM; C=>0.1 μM.

USP7, sequence (Q93009 whole entry): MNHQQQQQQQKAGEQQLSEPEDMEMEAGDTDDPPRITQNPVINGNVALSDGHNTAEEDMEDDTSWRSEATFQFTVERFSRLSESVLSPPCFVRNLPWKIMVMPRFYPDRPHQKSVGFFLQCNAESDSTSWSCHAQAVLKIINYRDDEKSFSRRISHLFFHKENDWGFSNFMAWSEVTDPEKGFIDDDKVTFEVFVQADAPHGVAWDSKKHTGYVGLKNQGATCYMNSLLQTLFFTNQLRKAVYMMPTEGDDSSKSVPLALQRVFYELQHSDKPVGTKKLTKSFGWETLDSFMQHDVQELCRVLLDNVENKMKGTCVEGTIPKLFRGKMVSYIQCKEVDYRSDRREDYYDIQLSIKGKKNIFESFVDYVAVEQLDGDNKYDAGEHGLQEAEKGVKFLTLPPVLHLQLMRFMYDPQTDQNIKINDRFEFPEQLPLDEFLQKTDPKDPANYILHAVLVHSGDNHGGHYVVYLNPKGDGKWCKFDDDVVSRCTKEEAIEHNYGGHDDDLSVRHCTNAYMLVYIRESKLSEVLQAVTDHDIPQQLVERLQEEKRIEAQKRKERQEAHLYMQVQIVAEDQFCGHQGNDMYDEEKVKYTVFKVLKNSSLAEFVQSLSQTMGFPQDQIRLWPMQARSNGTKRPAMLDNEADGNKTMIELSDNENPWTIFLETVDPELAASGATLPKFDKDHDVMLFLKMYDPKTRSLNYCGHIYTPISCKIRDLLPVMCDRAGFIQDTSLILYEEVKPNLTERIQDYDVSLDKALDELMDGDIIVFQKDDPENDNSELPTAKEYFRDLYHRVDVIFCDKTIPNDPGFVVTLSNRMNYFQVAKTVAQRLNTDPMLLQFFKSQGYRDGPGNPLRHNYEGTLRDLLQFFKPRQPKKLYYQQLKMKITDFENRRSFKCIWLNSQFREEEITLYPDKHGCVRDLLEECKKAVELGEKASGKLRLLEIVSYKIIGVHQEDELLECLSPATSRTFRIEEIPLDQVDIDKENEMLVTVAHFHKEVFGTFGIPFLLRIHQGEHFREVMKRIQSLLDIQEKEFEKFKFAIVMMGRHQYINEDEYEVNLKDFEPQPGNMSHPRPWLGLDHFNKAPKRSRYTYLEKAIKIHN

Compound	IC50
3-((4-(2-((5-oxa-8-azaspiro[3.5]nonan-6-yl)methyl)-5-chloro-3-methylphenyl)thieno[3,2-d]pyrimidin-6-yl)methyl)-3-azabicyclo[3.1.0]hexane-2,4-dione [Example 221]	< 10 nM
3-((7-(3,5-dichloro-2-(((2S,6S)-2,6-dimethylpiperazin-1-yl)methyl)phenyl)thieno[3,2-b]pyridin-2-yl)methyl)-1-methyldihydropyrimidine-2,4(1H,3H)-dione [Example 93]	< 10 nM
3-((7-(3,5-dichloro-2-(((2S,6S)-2,6-dimethylpiperazin-1-yl)methyl)phenyl)thieno[3,2-b]pyridin-2-yl)methyl)-1-methylpyrimidine-2,4(1H,3H)-dione [Example 95]	< 10 nM
3-((7-(5-chloro-2-(((2S,6S)-2,6-dimethyl piperazin-1-yl)methyl)-3-methylphenyl)thieno[3,2-b]pyridin-2-yl)methyl)-1-methylpyrimidine-2,4(1H,3H)-dione [Example 78]	< 10 nM
Cc1cc(Cl)cc(-c2ccnc3cc(Cn4c(=O)ccn(CC(F)(F)F)c4=O)sc23)c1CN1CCNC(=O)C1 [Example 1, 3-((7-(5-chloro-3-methyl-2-((3-oxopiperazin-1-yl)methyl)phenyl)thieno[3,2-b]pyridin-2-yl)methyl)-1-(2,2,2-trifluoroethyl)pyrimidine-2,4(1H,3H)-dione]	> 100 nM
Cc1cc(Cl)cc(-c2ccnc3cc(Cn4c(=O)ccn(CC(F)(F)F)c4=O)sc23)c1CN1CCNCC1 [Example 2, 3-((7-(5-chloro-3-methyl-2-(piperazin-1-ylmethyl)phenyl)thieno[3,2-b]pyridin-2-yl)methyl)-1-(2,2,2-trifluoroethyl)pyrimidine-2,4(1H,3H)-dione]	< 10 nM
Cc1cc(Cl)cc(-c2ccnc3cc(CN4C(=O)CCC4=O)sc23)c1CN1CCN(C)C[C@@H]1C [Example 3, (S)-1-((7-(5-chloro-2-((2,4-dimethylpiperazin-1 yl)methyl)-3-methylphenyl)thieno[3,2-b]pyridin-2-yl)methyl)pyrrolidine-2,5-dione]	< 10 nM
Cc1cc(Cl)cc(-c2ccnc3cc(Cn4c(=O)ccn(CC(F)(F)F)c4=O)sc23)c1CN1CCNCC1=O [Example 4, 3-((7-(5-chloro-3-methyl-2-((2-oxopiperazin-1-yl)methyl)phenyl)thieno[3,2-b]pyridin-2-yl)methyl)-1-(2,2,2-trifluoroethyl)pyrimidine-2,4(1H,3H)-dione]	> 100 nM
Cc1cc(Cl)cc(-c2ccnc3cc(CN4C(=O)CCC4=O)sc23)c1CN1CCNCC1 [Example 5, 1-((7-(5-chloro-3-methyl-2-(piperazin-1-ylmethyl)phenyl)thieno[3,2-b]pyridin-2-yl)methyl)pyrrolidine-2,5-dione]	10 to 100 nM
Cc1cc(Cl)cc(-c2ccnc3cc(CN4C(=O)C5C(C4=O)C5(C)C)sc23)c1CN1CCNCC1 (stereo not drawn) [Example 6, 3-((7-(5-chloro-3-methyl-2-(piperazin-1-ylmethyl)phenyl)thieno[3,2-b]pyridin-2-yl)methyl)-6,6-dimethyl-3-azabicyclo[3.1.0]hexane-2,4-dione]	10 to 100 nM
Cc1cc(Cl)cc(-c2ccnc3cc(CN4C(=O)CCC4=O)sc23)c1CN1CCNC[C@H]1C [Example 7, (R)-1-((7-(5-chloro-3-methyl-2-((2-methylpiperazin-1-yl)methyl)phenyl)thieno[3,2-b]pyridin-2-yl)methyl)pyrrolidine-2,5-dione]	10 to 100 nM
Cc1cc(Cl)cc(-c2ccnc3cc(CN4C(=O)CCC4=O)sc23)c1CN1CCNC[C@@H]1C [Example 8, (S)-1-((7-(5-chloro-3-methyl-2-((2-methylpiperazin-1-yl)methyl)phenyl)thieno[3,2-b]pyridin-2-yl)methyl)pyrrolidine-2,5-dione]	< 10 nM
Cc1cc(Cl)cc(-c2ccnc3cc(CN4C(=O)CCC4=O)sc23)c1CN1CC2CCC1CN2 (stereo not drawn) [Example 9, 1-((7-(2-((2,5-diazabicyclo[2.2.2]octan-2-yl)methyl)-5-chloro-3-methylphenyl)thieno[3,2-b]pyridin-2-yl)methyl)pyrrolidine-2,5-dione]	< 10 nM
Cc1cc(Cl)cc(-c2ccnc3cc(CN4C(=O)CCC4=O)sc23)c1CN1CCNC(C)(C)C1 [Example 10, 1-((7-(5-chloro-2-((3,3-dimethylpiperazin-1-yl)methyl)-3-methylphenyl)thieno[3,2-b]pyridin-2-yl)methyl)pyrrolidine-2,5-dione]	< 10 nM
CCN1CCN(Cc2c(C)cc(Cl)cc2-c2ccnc3cc(CN4C(=O)CCC4=O)sc23)[C@@H](C)C1 [Example 11, (S)-1-((7-(5-chloro-2-((4-ethyl-2-methylpiperazin-1-yl)methyl)-3-methylphenyl)thieno[3,2-b]pyridin-2-yl)methyl)pyrrolidine-2,5-dione]	< 10 nM
Cc1cc(Cl)cc(-c2ccnc3cc(CN4C(=O)CCC4=O)sc23)c1CN1CCNCC1(C)C [Example 12, 1-((7-(5-chloro-2-((2,2-dimethylpiperazin-1-yl)methyl)-3-methylphenyl)thieno[3,2-b]pyridin-2-yl)methyl)pyrrolidine-2,5-dione]	< 10 nM
Cc1cc(Cl)cc(-c2ccnc3cc(CN4C(=O)CCC4=O)sc23)c1CN1CCN(CCO)C[C@@H]1C [Example 13, (S)-1-((7-(5-chloro-2-((4-(2-hydroxyethyl)-2-methylpiperazin-1-yl)methyl)-3-methylphenyl)thieno[3,2-b]pyridin-2-yl)methyl)pyrrolidine-2,5-dione]	< 10 nM
Cc1cc(Cl)cc(-c2ccnc3cc(CN4C(=O)CCC4=O)sc23)c1CN1[C@@H](C)CNC[C@@H]1C [Example 14, 1-((7-(5-chloro-2-(((2S,6S)-2,6-dimethylpiperazin-1-yl)methyl)-3-methylphenyl)thieno[3,2-b]pyridin-2-yl)methyl)pyrrolidine-2,5-dione]	< 10 nM
Cc1cc(Cl)cc(-c2ccnc3cc(CN4C(=O)CCC4=O)sc23)c1CN1CC2CC1CN2 (stereo not drawn) [Example 15, 1-((7-(2-((2,5-diazabicyclo[2.2.1]heptan-2-yl)methyl)-5-chloro-3-methylphenyl)thieno[3,2-b]pyridin-2-yl)methyl)pyrrolidine-2,5-dione]	< 10 nM
Cc1cc(Cl)cc(-c2ccnc3cc(CN4C(=O)CCC4=O)sc23)c1CN1CCNCC1C(F)F (stereo not drawn) [Example 16, 1-((7-(5-chloro-2-((2-(difluoromethyl)piperazin-1-yl)methyl)-3-methylphenyl)thieno[3,2-b]pyridin-2-yl)methyl)pyrrolidine-2,5-dione]	10 to 100 nM
Cc1cc(Cl)cc(-c2ccnc3cc(CN4C(=O)CCC4=O)sc23)c1CN1CCCNCC1 [Example 17, 1-((7-(2-((1,4-diazepan-1-yl)methyl)-5-chloro-3-methylphenyl)thieno[3,2-b]pyridin-2-yl)methyl)pyrrolidine-2,5-dione]	< 10 nM
Cc1cc(Cl)cc(-c2ccnc3cc(CN4C(=O)CCC4=O)sc23)c1CN1CCNC(C)C1 (stereo not drawn) [Example 18, 1-((7-(5-chloro-3-methyl-2-((3-methylpiperazin-1-yl)methyl)phenyl)thieno[3,2-b]pyridin-2-yl)methyl)pyrrolidine-2,5-dione]	< 10 nM
Cc1cc(Cl)cc(-c2ccnc3cc(CN4C(=O)CCC4=O)sc23)c1CN1C[C@@H](C)N[C@@H](C)C1 [Example 19, 1-((7-(5-chloro-2-(((3 S,5R)-3,5-dimethylpiperazin-1-yl)methyl)-3-methylphenyl)thieno[3,2-b]pyridin-2-yl)methyl)pyrrolidine-2,5-dione]	10 to 100 nM
Cc1cc(Cl)cc(-c2ccnc3cc(CN4C(=O)C5C(C4=O)C5(C)C)sc23)c1CN1CCNC[C@@H]1C (stereo partly drawn) [Example 20, 3-((7-(5-chloro-3-methyl-2-(((S)-2-methylpiperazin-1-yl)methyl)phenyl)thieno[3,2-b]pyridin-2-yl)methyl)-6,6-dimethyl-3-azabicyclo[3.1.0]hexane-2,4-dione]	< 10 nM
Cc1cc(Cl)cc(-c2ccnc3cc(CN4C(=O)CCC4=O)sc23)c1CN1CCN(C(C)C)C[C@@H]1C [Example 21, (S)-1-((7-(5-chloro-2-((4-isopropyl-2-methylpiperazin-1-yl)methyl)-3-methylphenyl)thieno[3,2-b]pyridin-2-yl)methyl)pyrrolidine-2,5-dione]	< 10 nM
Cc1cc(Cl)cc(-c2ccnc3cc(CN4C(=O)CCC4=O)sc23)c1CN1[C@H](C)CNC[C@@H]1C [Example 22, 1-((7-(5-chloro-2-(((2R,6S)-2,6-dimethylpiperazin-1-yl)methyl)-3-methylphenyl)thieno[3,2-b]pyridin-2-yl)methyl)pyrrolidine-2,5-dione]	< 10 nM
Cc1cc(Cl)cc(-c2ccnc3cc(CN4C(=O)C5C(C4=O)C5(C)C)sc23)c1CN1CCN(C)C[C@@H]1C (stereo partly drawn) [Example 23, 3-((7-(5-chloro-2-(((S)-2,4-dimethylpiperazin-1-yl)methyl)-3-methylphenyl)thieno[3,2-b]pyridin-2-yl)methyl)-6,6-dimethyl-3-azabicyclo[3.1.0]hexane-2,4-dione]	< 10 nM
CCN1CCN(Cc2c(C)cc(Cl)cc2-c2ccnc3cc(CN4C(=O)C5C(C4=O)C5(C)C)sc23)[C@@H](C)C1 (stereo partly drawn) [Example 24, 3-((7-(5-chloro-2-(((S)-4-ethyl-2-methylpiperazin-1-yl)methyl)-3-methylphenyl)thieno[3,2-b]pyridin-2-yl)methyl)-6,6-dimethyl-3-azabicyclo[3.1.0]hexane-2,4-dione]	< 10 nM
Cc1cc(Cl)cc(-c2ccnc3cc(CN4C(=O)CCC4=O)sc23)c1CN1C[C@H](C)N[C@@H](C)C1 [Example 25, 1-((7-(5-chloro-2-(((3 S,5 S)-3,5-dimethylpiperazin-1-yl)methyl)-3-methylphenyl)thieno[3,2-b]pyridin-2-yl)methyl)pyrrolidine-2,5-dione]	< 10 nM
Cc1cc(Cl)cc(-c2ccnc3cc(CN4C(=O)CCC4=O)sc23)c1CN1C[C@@H](C)N[C@H](C)C1 [Example 26, 1-((7-(5-chloro-2-(((3R,5R)-3,5-dimethylpiperazin-1-yl)methyl)-3-methylphenyl)thieno[3,2-b]pyridin-2-yl)methyl)pyrrolidine-2,5-dione]	< 10 nM
